Assay results taken from US5010102A, “Anti-ulcer 5-(2-substituted ethenyl)-3(2H)-furanones” (American Home Products Corp., priority 1990, dated 1991).

Tested on: gastric mucosal lesions produced by ethanol
Assay: prevention of gastric mucosal lesions produced by ethanol in rats (cytoprotective/anti-ulcer, Robert et al.)
Type: in vivo
Conditions: Rattus norvegicus; 10 mg/kg, oral, usually 1 hour before ethanol; male Sprague-Dawley rats; read-out: percentage inhibition of lesion formation
Procedure: The rats were placed in individual cages and denied water 2 hours or more before testing. At a fixed time before administration of ethanol (usually 1 hour), the animals were orally administered either the test compound or its water-carboxymethylcellulose vehicle. Ethanol was then administered orally at a dose of 1 mL per animal. One hour after administration of the ethanol, the animals were sacrificed and their stomachs removed, cut along the greater curvature and flushed clean with tap water. Macroscopic lesions on the gastric mucosa were graded from 0-3 based upon the absence of lesions to the presence of lesions which approximate 6 millimeters in length. Comparison of the treated group with the control group permits expression of the results as percentage inhibition of lesion formation as a direct measure of cytoprotection. […] The results of these studies are given at the end of each example illustrating the preparation of the tested compound, supra, as the percent inhibition or ED50 where the latter value was determined.

First: CC1(c2ccc(F)cc2)OC(/C=C/c2ccsc2)=CC1=O (stereo not drawn) [Example 33, 2-(4-Fluorophenyl)-2-methyl-5-[2-(3-thienyl)ethenyl]-3(2H)-furanone]
Second: CC1(c2ccc(F)cc2)OC(/C=C/c2ccc(C#N)cc2)=CC1=O (stereo not drawn) [Example 31, 4-[2-[2,3-Dihydro-2-(4-fluorophenyl)-2-methyl-3-oxo-5-furanyl]ethenyl]benzonitrile]
The inhibition in vivo at 10 mg/kg of the first is higher: 22% for the first, 1% for the second.

Compared with `CC1(c2ccccc2)OC(/C=C/c2ccncc2)=CC1=O` (stereo not drawn) [Example 27, 2-Methyl-2-phenyl-5-[2-(4-pyridinyl)ethenyl]-3(2H)-furanone], `CC1(c2ccccc2)OC(/C=C/c2ccc(C#N)cc2)=CC1=O` (stereo not drawn) [Example 29, 4-[2-[2,3-Dihydro-2-methyl-3-oxo-2-phenyl-5-furanyl]ethenyl]benzonitrile] is lower in inhibition in vivo at 10 mg/kg: 44% for the first, 4% for the second.

Going from `CC1(c2ccc(F)cc2)OC(/C=C/c2ccccn2)=CC1=O` (stereo not drawn) [Example 32, 2-Methyl-2-(4-fluorophenyl)-5-[2-(2-pyridinyl)ethenyl]-3(2H)-furanone] to `CC1(C)OC(/C=C/c2cc3ccccc3s2)=CC1=O` [Example 24, 5-[2-(Benzo[b]thien-2-yl)ethenyl]-2,2-dimethyl-3(2H)-furanone], the inhibition in vivo at 10 mg/kg falls from 92% to 17%.

Compared with `CC1(C)OC(/C=C/c2cccs2)=CC1=O` [Example 23, 2,2-Dimethyl-5-[2-(2-thienyl)ethenyl]-3(2H)-furanone], `Cn1cccc1/C=C/C1=CC(=O)C(C)(C)O1` [Example 16, 2,2-Dimethyl-5-[2-(1-methyl-2-pyrrolyl)ethenyl]-3(2H)-furanone] is higher in inhibition in vivo at 10 mg/kg: 1% for the first, 32% for the second.

Going from `CC1(C)OC(/C=C/c2cnccn2)=CC1=O` [Example 21, 2,2-Dimethyl-5-[2-(2-pyrazinyl)ethenyl]-3(2H)-furanone] to `CC1(C)OC(/C=C/c2ccoc2)=CC1=O` [Example 25, 5-[2-(3-Furanyl)ethenyl]-2,2-dimethyl-3(2H)-furanone], the inhibition in vivo at 10 mg/kg falls from 56% to 35%.

Same assay, conditions: Rattus norvegicus; 25 mg/kg, oral, usually 1 hour before ethanol; male Sprague-Dawley rats; read-out: percentage inhibition of lesion formation

Compared with `CC1(C)OC(/C=C/c2ccc(S(C)(=O)=O)cc2)=CC1=O` [Example 13, 2,2-Dimethyl-5-[2-[4-(methylsulfonyl)phenyl]ethenyl]-3(2H)-furanone], `CC1(C)OC(/C=C/c2ccc(Br)cc2)=CC1=O` [Example 5, (E)-2,2-Dimethyl-5-[2-(4-bromophenyl)ethenyl]-3(2H)-furanone] is higher in inhibition in vivo at 25 mg/kg: 56% for the first, 63% for the second.

Compared with `CC1(C)OC(/C=C/c2ccc(F)c(F)c2)=CC1=O` [Example 4, 5-[2-(3,4-Difluorophenyl)ethenyl]-2,2-dimethyl-3(2H)-furanone], `CC1(C)OC(/C=C/c2ccc(F)cc2F)=CC1=O` [Example 3, 5-[2-(2,4-Difluorophenyl)ethenyl]-2,2-dimethyl-3(2H)-furanone] is higher in inhibition in vivo at 25 mg/kg: 47% for the first, 52% for the second.

First: CC1(C)OC(/C=C/c2ccc(C(F)(F)F)cc2)=CC1=O [Example 11, 2,2-Dimethyl-5-[2-[4-(trifluoromethyl)phenyl]ethenyl]-3(2H)-furanone]
Second: CSc1ccc(/C=C/C2=CC(=O)C(C)(C)O2)cc1 [Example 12, (E)-2,2-Dimethyl-5-[2-[4-(methylthio)phenyl]ethenyl]-3(2H)-furanone]
The inhibition in vivo at 25 mg/kg of the first is higher: 30% for the first, 5% for the second.

With `COc1cc(/C=C/C2=CC(=O)C(C)(C)O2)cc(OC)c1OC` [Example 1, 2,2-Dimethyl-5-[2-(3,4,5-trimethoxyphenyl)ethenyl]-3(2H)-furanone] the inhibition in vivo at 25 mg/kg was 81%.

Same assay, conditions: Rattus norvegicus; oral, usually 1 hour before ethanol; male Sprague-Dawley rats; calculated from a series of dosage levels; read-out: ED50 (dose at which half the animals did not develop lesions significantly different from the control group)

Going from `CC1(c2ccccc2)OC(/C=C/c2ccccn2)=CC1=O` (stereo not drawn) [Example 28, 2-Methyl-2-phenyl-5-[2-(2-pyridinyl)ethenyl]-3(2H)-furanone] to `CC1(c2ccc(F)cc2)OC(/C=C/c2ccccn2)=CC1=O` (stereo not drawn) [Example 32, 2-Methyl-2-(4-fluorophenyl)-5-[2-(2-pyridinyl)ethenyl]-3(2H)-furanone], the ED50 falls from 6 mg/kg to 3.5 mg/kg (1.7-fold).

`CC1(C)OC(/C=C/c2ccc(S(C)(=O)=O)cc2)=CC1=O` [Example 13, 2,2-Dimethyl-5-[2-[4-(methylsulfonyl)phenyl]ethenyl]-3(2H)-furanone] and `CC1(C)OC(/C=C/c2ccc(F)cc2)=CC1=O` [Example 2, 2,2-Dimethyl-5-[2-(4-fluorophenyl)ethenyl]-3(2H)-furanone] are within 1.5-fold of each other in ED50: 10.6 mg/kg for the first, 11 mg/kg for the second.

Going from `CC1(C)OC(/C=C/c2ccncc2)=CC1=O` [Example 18, 2,2-Dimethyl-5-[2-(4-pyridinyl)ethenyl]-3(2H)-furanone] to `CC1(C)OC(/C=C/c2cccnc2)=CC1=O` [Example 19, 2,2-Dimethyl-5-[2-(3-pyridinyl)ethenyl]-3(2H)-furanone], the ED50 rises from 4 mg/kg to 9.3 mg/kg (2.3-fold).

Going from `CC1(c2ccccc2)OC(/C=C/c2cccnc2)=CC1=O` (stereo not drawn) [Example 26, 2-Phenyl-2-methyl-5-[2-(3-pyridinyl)ethenyl]-3(2H)-furanone] to `CC1(C)OC(/C=C/c2ccnc3ccccc23)=CC1=O` [Example 20, 5-[2-(4-Quinolinyl)ethenyl]-2,2-dimethyl-3(2H)-furanone], the ED50 falls from 5 mg/kg to 2.5 mg/kg (2-fold).

`CC1(C)OC(/C=C/c2ccc(C#N)cc2)=CC1=O` [Example 14, 4-[2-(2,3-Dihydro-2,2-dimethyl-3-oxo-5-furanyl)ethenyl]benzonitrile] and `CC1(C)OC(/C=C/c2ccc(Cl)cc2)=CC1=O` [Example 6, 2,2-Dimethyl-5-[2-(4-chlorophenyl)ethenyl]-3(2H)-furanone] are within 1.5-fold of each other in ED50: 15 mg/kg for the first, 10.3 mg/kg for the second.

Compared with `CC1(C)OC(/C=C/c2ccsc2)=CC1=O` [Example 22, 2,2-Dimethyl-5-[2-(3-thienyl)ethenyl]-3(2H)-furanone], `CC1(C)OC(/C=C/c2ccccn2)=CC1=O` [Example 17, 2,2-Dimethyl-5-[2-(2-pyridinyl)ethenyl]-3(2H)-furanone] is 2.2-fold higher in ED50: 4 mg/kg for the first, 9 mg/kg for the second.

In the case of `CC1(C)OC(/C=C/c2cc(Cl)cc(Cl)c2)=CC1=O` [Example 10, 5-[2-(3,5-Dichlorophenyl)ethenyl]-2,2-dimethyl-3(2H)-furanone], the ED50 is reported as 9 mg/kg.
